Data: patent publication US20060052357A1, “Organometallic anti-tumour agent” (priority 2001, published 2006)

How the values were obtained:
adenocarcinoma = assay: Adenocarcinoma, intravenous administration four times; type: in vivo, mice; settings: 5 mg/kg intravenous four times
Text: 2. Antitumor Activity for Adenocarcinoma and Intra-Venous Administration (Four Times in Physiological Saline Solution)

[1] = test system: drug-resistant leukemia P-388 tumors; settings: rubomycin-, vincristine-, cisplatin-resistant P-388
Text: The drug-resistant tumors were obtained by administration of ascites cells leukemia P-388 which were derived from mice treated with rubomycin, vincristine and cisplatin.

CC(=O)C=C(C)[O-].CC(=O)C=C(C)[O-].NC(Cc1ccc(N(CCCl)CCCl)cc1)C(=O)O.[Cu+2] (stereo not drawn) [MOC.melphalan, (C5H7O2)2—Cu—C13H18Cl2N2O2]
% inhibition (adenocarcinoma): 80% | Mass of the tumor (adenocarcinoma; control 4.4): 0.9 g | sensitivity of the resistant tumors reduced [1]: 4-5 fold
